Source: US7632844B2, “2-hydroxy-6-phenylphenanthridines as PDE-4 inhibitors” (Nycomed GmbH, priority 2002, dated 2009)

Target: T1, PDE4B2 (GB no. M97515) (Homo sapiens, UniProt Q07343)
T1 construct: made in house; host or cells: SF21 insect cells (baculovirus; virus made in SF9 cells)
Assay: Inhibition of PDE4B2 activity, Method b (modified SPA test, recombinant PDE expressed in SF21 cells)
Format: biochemical
Settings: 0.5 μM cAMP, read-out: Inhibition of the PDE4 activity, −log IC50 (converted)
Experimental: The PDE4B2 (GB no. M97515) was a gift of Prof. M. Conti (Stanford University, USA). It was amplified from the original plasmid (pCMV5) via PCR with primers Rb9 (5′-[…]-3′) and Rb10 (5′-[…]-3′) and cloned into the pCR-Bac vector (Invitrogen, Groningen, NL).
The recombinant baculovirus was prepared by means of homologous recombination in SF9 insect cells. The expression plasmid was cotransfected with Bac-N-Blue (Invitrogen, Groningen, NL) or Baculo-Gold DNA (Pharmingen, Hamburg) using a standard protocol (Pharmingen, Hamburg). Wt virus-free recombinant virus supernatant was selected using plaque assay methods. After that, high-titre virus supernatant was prepared by amplifying 3 times. PDE was expressed in SF21 cells by infecting 2×10^6 cells/ml with an MOI (multiplicity of infection) between 1 and 10 in serum-free SF900 medium (Life Technologies, Paisley, UK). The cells were cultured at 28° C. for 48-72 hours, after which they were pelleted for 5-10 min at 1000 g and 4° C.
The SF21 insect cells were resuspended, at a concentration of approx. 10^7 cells/ml, in ice-cold (4° C.) homogenization buffer (20 mM Tris, pH 8.2, containing the following additions: 140 mM NaCl, 3.8 mM KCl, 1 mM EGTA, 1 mM MgCl2, 10 mM β-mercaptoethanol, 2 mM benzamidine, 0.4 mM Pefablock, 10 μM leupeptin, 10 μM pepstatin A, 5 μM trypsin inhibitor) and disrupted by ultrasonication. The homogenate was then centrifuged for 10 min at 1000×g and the supernatant was stored at −80° C. until subsequent use (see below). The protein content was determined by the Bradford method (BioRad, Munich) using BSA as the standard.
PDE4B2 activity is inhibited by the said compounds in a modified SPA (scintillation proximity assay) test, supplied by Amersham Biosciences (see procedural instructions “phosphodiesterase [3H]cAMP SPA enzyme assay, code TRKQ 7090”), carried out in 96-well microtiter plates (MTP's). The test volume is 100 μl and contains 20 mM Tris buffer (pH 7.4), 0.1 mg of BSA (bovine serum albumin)/ml, 5 mM Mg^2+, 0.5 μM cAMP (including about 50,000 cpm of [3H]cAMP), 1 μl of the respective substance dilution in DMSO and sufficient recombinant PDE (1000×g supernatant, see above) to ensure that 10-20% of the cAMP is converted under the said experimental conditions. […] After a preincubation of 5 min at 37° C., the reaction is started by adding the substrate (cAMP) and the assay is incubated for a further 15 min; after that, it is stopped by adding SPA beads (50 μl). In accordance with the manufacturer's instructions, the SPA beads had previously been resuspended in water, but were then diluted 1:3 (v/v) in water; the diluted solution also contains 3 mM IBMX to ensure a complete PDE activity stop. After the beads have been sedimented (>30 min), the MTP's are analyzed in commercially available luminescence detection devices. The corresponding IC50 values of the compounds for the inhibition of PDE activity are determined from the concentration-effect curves by means of non-linear regression.

T1 sequence (Q07343 1-564 isoform Q07343-2): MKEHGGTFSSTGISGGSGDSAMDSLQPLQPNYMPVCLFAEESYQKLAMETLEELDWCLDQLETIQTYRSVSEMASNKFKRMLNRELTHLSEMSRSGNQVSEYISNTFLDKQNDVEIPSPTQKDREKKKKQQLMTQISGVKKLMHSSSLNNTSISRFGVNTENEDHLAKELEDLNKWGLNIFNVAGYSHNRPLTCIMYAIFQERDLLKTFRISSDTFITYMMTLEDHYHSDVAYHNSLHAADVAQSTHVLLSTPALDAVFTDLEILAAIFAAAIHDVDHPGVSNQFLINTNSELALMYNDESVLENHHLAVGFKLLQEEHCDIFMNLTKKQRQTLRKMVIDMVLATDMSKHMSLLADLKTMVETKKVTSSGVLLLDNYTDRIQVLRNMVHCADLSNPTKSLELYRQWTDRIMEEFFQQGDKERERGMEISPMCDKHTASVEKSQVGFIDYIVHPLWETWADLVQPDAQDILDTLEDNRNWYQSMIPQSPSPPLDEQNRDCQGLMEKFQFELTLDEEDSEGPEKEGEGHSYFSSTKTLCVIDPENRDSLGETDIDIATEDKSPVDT

Row | SMILES | IC50 [nM]
1 | CCOc1cc2c(cc1OC)C(c1cccc(F)c1)=N[C@@H]1CC[C@@H](O)C[C@H]21 (racemic) [Compound 61, (±)-(2RS,4aRS, 10bRS)-9-Ethoxy-6-(3-fluoro-phenyl)-8-methoxy-1,2,3,4,4a,10b-hexahydro-phenanthridin-2-ol] | 0.182 to 6.03
2 | CCOc1cc2c(cc1OC)C(c1ccc(OC(F)(F)F)cc1)=N[C@@H]1CC[C@@H](O)C[C@H]21 (racemic) [Compound 58, (±)-(2RS,4aRS,10bRS)-9-Ethoxy-8-methoxy-6-(4-trifluoromethoxy-phenyl)-1,2,3,4,4a,10b-hexahydro-phenanthridin-2-ol] | 0.182 to 6.03
3 | CCOc1cc2c(cc1OC)C(c1ccc(OCC)c(OCC3CC3)c1)=N[C@@H]1CC[C@@H](O)C[C@H]21 (racemic) [Compound 53, (±)-(2RS,4aRS,10bRS)-6-(3-Cyclopropylmethoxy-4-ethoxy-phenyl)-9-ethoxy-8-methoxy-1,2,3,4,4a,10b-hexahydro-phenanthridin-2-ol] | 0.182 to 6.03
4 | CCOc1cc2c(cc1OC)C(c1cccc(OC(F)F)c1)=N[C@@H]1CC[C@@H](O)C[C@H]21 (racemic) [Compound 56, (±)-(2RS,4aRS,10bRS)-6-[3-(1,1-Difluoro-methoxy)-phenyl]-9-ethoxy-8-methoxy-1,2,3,4,4a,10b-hexahydro-phenanthridin-2-ol] | 0.182 to 6.03
5 | CCOc1cc2c(cc1OC)C(c1ccc(OC(F)F)c(OC(F)F)c1)=N[C@@H]1CC[C@@H](O)C[C@H]21 (racemic) [Compound 55, (±)-(2RS,4aRS,10bRS)-6-[3,4-Bis-(1,1-difluoro-methoxy)-phenyl]-9-ethoxy-8-methoxy-1,2,3,4,4a,10b-hexahydro-phenanthridin-2-ol] | 0.182 to 6.03
6 | CCOc1cc2c(cc1OC)C(c1ccc(OC(F)F)c(OCC3CC3)c1)=N[C@@H]1CC[C@@H](O)C[C@H]21 (racemic) [Compound 54, (±)-(2RS,4aRS,10bRS)-6-[3-Cyclopropylmethoxy-4-(1,1-difluoro-methoxy)-phenyl]-9-ethoxy-8-methoxy-1,2,3,4,4a,10b-hexahydro-phenanthridin-2-ol] | 0.182 to 6.03
7 | CCCCOc1ccc(C2=N[C@@H]3CC[C@@H](O)C[C@@H]3c3cc(OC)c(OC)cc32)cc1 (racemic) [Compound 43, (±)-(2RS,4aRS,10bRS)-6-(4-Butoxy-phenyl)-8,9-dimethoxy-1,2,3,4,4a,10b-hexahydrophenanthridin-2-ol] | 0.182 to 6.03
8 | CCCOc1cc(C2=N[C@@H]3CC[C@@H](O)C[C@@H]3c3cc(OC)c(OC)cc32)ccc1OC (racemic) [Compound 48, (±)-(2RS,4aRS,10bRS)-8,9-Dimethoxy-6-(4-methoxy-3-propoxy-phenyl)-1,2,3,4,4a,10b-hexahydro-phenanthridin-2-ol] | 0.182 to 6.03
9 | CCOc1cc2c(cc1OC)C(c1ccc(OC(F)(F)C(F)F)cc1)=N[C@@H]1CC[C@@H](O)C[C@H]21 (racemic) [Compound 57, (±)-(2RS,4aRS,10bRS)-9-Ethoxy-8-methoxy-6-[4-(1,1,2,2-tetrafluoro-ethoxy)-phenyl]-1,2,3,4,4a,10b-hexahydro-phenanthridin-2-ol] | 0.182 to 6.03
10 | COCCO[C@@H]1CC[C@H]2N=C(c3ccc(OCC4CC4)c(OCC4CC4)c3)c3cc(OC)c(OC)cc3[C@H]2C1 (racemic) [Compound 76, (±)-(2RS,4aRS,10bRS)-6-(3,4-Bis-cyclopropylmethoxy-phenyl)-8,9-dimethoxy-2-(2-methoxy-ethoxy)-1,2,3,4,4a,10b-hexahydro-phenanthridine] | 0.182 to 6.03
11 | CCOc1cc2c(cc1OC)C(c1ccc(F)c(F)c1)=N[C@@H]1CC[C@@H](O)C[C@H]21 (racemic) [Compound 60, (±)-(2RS,4aRS,10bRS)-6-(3,4-Difluoro-phenyl)-9-ethoxy-8-methoxy-1,2,3,4,4a,10b-hexahydro-phenanthridin-2-ol] | 0.182 to 6.03

More lines, now with the values ahead:

Row | IC50 [nM] | SMILES
12 | 0.182 to 6.03 | CCOc1cc2c(cc1OC)C(c1ccc(OC)c(F)c1)=N[C@@H]1CC[C@@H](O)C[C@H]21 (racemic) [Compound 59, (±)-(2RS,4aRS,10bRS)-9-Ethoxy-6-(3-fluoro-4-methoxy-phenyl)-8-methoxy-1,2,3,4,4a,10b-hexahydro-phenanthridin-2-ol]
13 | 0.182 to 6.03 | CCOc1cc2c(cc1OC)C(c1ccc(C#N)cc1)=N[C@@H]1CC[C@@H](O)C[C@H]21 (racemic) [Compound 52, (±)-4-((2RS,4aRS,10bRS)-9-Ethoxy-2-hydroxy-8-methoxy-1,2,3,4,4a,10b-hexahydro-phenanthridin-6-yl)-benzonitrile]
14 | 0.182 to 6.03 | CCOc1cc2c(cc1OC)C(c1ccc(F)cc1)=N[C@@H]1CC[C@@H](O)C[C@H]21 (racemic) [Compound 51, (±)-(2RS,4aRS,10bRS)-9-Ethoxy-6-(4-fluoro-phenyl)-8-methoxy-1,2,3,4,4a,10b-hexahydro-phenanthridin-2-ol]
15 | 0.182 to 6.03 | COc1cc2c(cc1OC)[C@H]1C[C@H](O)CC[C@H]1N=C2c1ccc(Oc2ccccc2)cc1 (racemic) [Compound 64, (±)-(2RS,4aRS,10bRS)-8,9-Dimethoxy-6-(4-phenoxy-phenyl)-1,2,3,4,4a,10b-hexahydro-phenanthridin-2-ol]
16 | 0.182 to 6.03 | COc1cc2c(cc1OC)[C@H]1C[C@H](O)CC[C@H]1N=C2c1ccc(OC(F)F)cc1 (racemic) [Compound 49, (±)-(2RS,4aRS,10bRS)-6-[4-(1,1-Difluoro-methoxy)-phenyl]-8,9-dimethoxy-1,2,3,4,4a,10b-hexahydro-phenanthridin-2-ol]
17 | 0.182 to 6.03 | COc1cc2c(cc1OC)[C@H]1C[C@H](O)CC[C@H]1N=C2c1ccc(C)cc1 (racemic) [Compound 63, (±)-(2RS,4aRS,10bRS)-8,9-Dimethoxy-6-p-tolyl-1,2,3,4,4a,10b-hexahydro-phenanthridin-2-ol]
18 | 0.182 to 6.03 | CCOc1cc2c(cc1OC)C(c1ccc(Br)cc1)=N[C@@H]1CC[C@@H](O)C[C@H]21 (racemic) [Compound 62, (±)-(2RS,4aRS,10bRS)-6-(4-Bromo-phenyl)-9-ethoxy-8-methoxy-1,2,3,4,4a,10b-hexahydro-phenanthridin-2-ol]
19 | 0.182 to 6.03 | COc1cc2c(cc1OC)[C@H]1C[C@H](O)CC[C@H]1N=C2c1ccc(NC(C)=O)cc1 (racemic) [Compound 45, (±)-N-[4-((2RS,4aRS,10bRS)-2-Hydroxy-8,9-dimethoxy-1,2,3,4,4a,10b-hexahydro-phenanthridin-6-yl)-phenyl]-acetamide]
20 | 0.182 to 6.03 | CCOc1cc2c(cc1OC)C(c1ccc(C(=O)OC)cc1)=N[C@@H]1CC[C@@H](O)C[C@H]21 (racemic) [Compound 50, (±)-4-((2RS,4aRS,10bRS)-9-Ethoxy-2-hydroxy-8-methoxy-1,2,3,4,4a,10 b-hexahydro-phenanthridin-6-yl)-benzoic acid methyl ester]
21 | 0.182 to 6.03 | COc1cc2c(cc1OC)[C@H]1C[C@H](O)CC[C@H]1N=C2c1ccc(Cl)cc1 (racemic) [Compound 46, (±)-(2RS,4aRS,10bRS)-6-(4-Chloro-phenyl)-8,9-dimethoxy-1,2,3,4,4a,10 b-hexahydro-phenanthridin-2-ol]
